{"source": "patent US8685928B2", "about": "“Antagonists of MUC1” (Dana-Farber Cancer Institute, Inc., priority 2010, dated 2014)", "key": {"[1]": {"test": "Clinical signs of toxicity in xenograft-bearing mice", "format": "in vivo, mouse", "details": "30 mg/kg IP daily for 28 days", "description": "(§1) Efficacy of GO-203-2, the reduced form of GO-203-2c that is responsible for binding to and inhibiting oligomerization of MUC1-CD was evaluated in several different human tumor xenograft models. For these studies BALB/c nu/nu mice (6-7 weeks old; Charles River Laboratories, Wilmington, Mass.) were injected with 10 million COLO-205 colon carcinoma, MiaPaCa pancreatic carcinoma or SKOV3 ovarian carcinoma cells in the right thigh. When tumors reached a predetermined size (80-125 mm^3), mice were randomized into groups of 8 animals and treatment was initiated, which consisted of daily IP injection of GO-203-2 (30 mg/kg), control peptide CP-2 (30 mg/kg) or PBS vehicle control for 28 days. Mice with tumors in excess of ˜2 g or with ulcerated tumors were euthanized, as were those found in obvious distress or in a moribund condition. Mice without palpable tumors were maintained until 90 to 100 days after treatment initiation to confirm lack of re-growth. In addition, animals were weighed periodically during the treatment period and examined for clinical signs of toxicity."}, "[2]": {"system": "MiaPaCa pancreatic carcinoma xenograft", "test": "MiaPaCa pancreatic carcinoma xenograft model, daily IP", "format": "in vivo, mouse", "details": "for Tumor response: 30 mg/kg IP daily for 28 days", "description": "as §1"}, "[3]": {"system": "SKOV3 ovarian carcinoma xenograft", "test": "SKOV3 ovarian carcinoma xenograft model, daily IP", "format": "in vivo, mouse", "details": "for Tumor response: 30 mg/kg IP daily for 28 days", "description": "as §1"}, "[4]": {"system": "COLO-205 colon carcinoma xenograft", "test": "COLO-205 colon carcinoma xenograft model, daily IP", "format": "in vivo, mouse", "details": "for Tumor response: 30 mg/kg IP daily for 28 days", "description": "as §1"}, "[5]": {"system": "H1975 Lung cancer cells", "test": "Inhibition of cell proliferation, trypan blue exclusion (Table 2)", "format": "cell-based, human", "details": "5 μM peptide every day, 6-day treatment", "description": "(§2) Cells (ZR-75-1 breast carcinoma or H-1975 non-small cell lung carcinoma) were plated separately in 24-well plates for 24 hours prior to treatment with different peptides. The cells were then treated with 5 μM (final concentration) of different peptides every day for 4-6 days. On the day of termination, cells were washed two times with PBS and trypsinized with 0.3 ml of Trypsin/EDTA. Cell growth media was used to stop the trypsin reaction. Following washing, the cells were centrifuged and the cell pellets were re-suspended in PBS for counting in hemacytometer.\n(§3) The trypan blue dye exclusion method was used to determine the number of viable cells present in a cell suspension. Cell suspension was mixed as 1:1 with the trypan blue dye and then visually examined in a hemacytometer. A viable cell will have a clear cytoplasm whereas a non-viable/dead cell will be stained with trypan blue dye. By doing this trypan blue exclusion method, viable cell numbers were counted and percent inhibition of proliferation was then calculated comparing with untreated controls."}, "[6]": {"target": "T1, His-tagged MUC1-CD (Homo sapiens, UniProt P15941)", "T1 construct": "contains a 72-amino acid cytoplasmic domain (MUC1-CD)", "T1 sequence (P15941 1182-1255 limits assumed)": "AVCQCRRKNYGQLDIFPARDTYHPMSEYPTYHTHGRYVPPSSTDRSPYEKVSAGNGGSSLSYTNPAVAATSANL", "test": "Oligomerization of purified His-tagged MUC1-CD proteins in a cell-free system", "format": "biochemical", "text": "This finding is not surprising based on a requirement for the cysteine residues in the GO-203-2 binding domain (CQCRRKN) to be available for binding with cysteine residues on the corresponding binding domain of the MUC1-CD protein."}, "[7]": {"target": "adrenergic α1A receptor (Homo sapiens, UniProt P35348)", "sequence (P35348 whole entry)": "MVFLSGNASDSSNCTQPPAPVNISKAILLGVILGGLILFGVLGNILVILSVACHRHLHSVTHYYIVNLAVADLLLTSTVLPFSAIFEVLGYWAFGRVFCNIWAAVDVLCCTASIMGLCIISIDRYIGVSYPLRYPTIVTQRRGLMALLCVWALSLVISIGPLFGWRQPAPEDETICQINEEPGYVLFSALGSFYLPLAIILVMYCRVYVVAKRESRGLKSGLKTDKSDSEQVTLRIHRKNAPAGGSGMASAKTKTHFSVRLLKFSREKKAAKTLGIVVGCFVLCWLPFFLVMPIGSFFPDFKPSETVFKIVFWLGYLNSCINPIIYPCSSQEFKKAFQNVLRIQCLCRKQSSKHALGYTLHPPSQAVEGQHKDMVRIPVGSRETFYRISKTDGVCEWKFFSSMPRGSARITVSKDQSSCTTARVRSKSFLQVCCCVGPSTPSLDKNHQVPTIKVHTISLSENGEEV", "test": "biochemical"}, "[8]": {"target": "T2, muscarinic M2 receptor (Homo sapiens, UniProt P08172)", "T2 sequence (P08172 whole entry)": "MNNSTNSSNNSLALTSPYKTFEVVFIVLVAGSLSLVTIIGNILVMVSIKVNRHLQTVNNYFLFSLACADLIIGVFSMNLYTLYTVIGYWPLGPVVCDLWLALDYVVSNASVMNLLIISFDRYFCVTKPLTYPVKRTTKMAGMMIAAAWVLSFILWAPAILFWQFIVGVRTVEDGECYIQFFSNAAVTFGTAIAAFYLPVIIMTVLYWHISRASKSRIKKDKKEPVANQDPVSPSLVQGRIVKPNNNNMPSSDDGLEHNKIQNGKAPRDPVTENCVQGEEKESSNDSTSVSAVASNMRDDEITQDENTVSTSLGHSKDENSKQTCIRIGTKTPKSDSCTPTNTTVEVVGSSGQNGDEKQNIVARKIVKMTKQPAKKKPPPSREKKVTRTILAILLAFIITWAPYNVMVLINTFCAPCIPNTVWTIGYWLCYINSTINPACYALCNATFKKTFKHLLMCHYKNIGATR", "test": "biochemical"}, "[9]": {"system": "human carcinoma cell lines", "description": "A series of in vitro and in vivo primary pharmacodynamic studies was conducted to assess efficacy and mechanism of action of GO-203-2c in human tumor cells.\nGO-203-2 and GO-203-2c were evaluated for ability to inhibit proliferation of murine and human carcinoma cell lines in vitro. Test compound (5 μM final concentration) was added to tumor cell cultures daily for 5 to 6 days, and cell viability was determined by trypan blue dye exclusion."}, "[10]": {"system": "His-tagged MUC1-CD", "test": "Cell-free oligomerization of purified His-tagged MUC1-CD, species comparison", "format": "biochemical", "details": "MUC1-CD from rat, dog and human compared", "description": "(§4) Studies were also conducted to confirm pharmacological relevance of the rodent and nonrodent species chosen for toxicology studies, namely the rat and dog, respectively. MUC1-CD amino acid sequence was determined to be greater than 80% identical between rat, dog and human proteins, and similar expression of MUC1 was found in stomach, intestinal and lung epithelium from the different species using immunohistochemical staining. […] The results of these studies indicate that potential MUC1-CD targets in the rat, dog and human are similar with respect to sequence, tissue expression and responsiveness to inhibition of oligomerization by GO-203-2c, and confirm pharmacological relevance of the species chosen for nonclinical safety assessment of GO-203-2c."}, "[11]": {"system": "MUC1-CD", "test": "MUC1-CD oligomerization in transfected HEK 293T cells, species comparison", "format": "cell-based", "details": "MUC1-CD from rat, dog and human compared", "description": "as §4"}, "[12]": {"target": "nicotinic acetylcholine α1 (bungarotoxin) receptor (Homo sapiens, UniProt P02708+P07510+Q07001)", "sequence (P07510 23-517)": "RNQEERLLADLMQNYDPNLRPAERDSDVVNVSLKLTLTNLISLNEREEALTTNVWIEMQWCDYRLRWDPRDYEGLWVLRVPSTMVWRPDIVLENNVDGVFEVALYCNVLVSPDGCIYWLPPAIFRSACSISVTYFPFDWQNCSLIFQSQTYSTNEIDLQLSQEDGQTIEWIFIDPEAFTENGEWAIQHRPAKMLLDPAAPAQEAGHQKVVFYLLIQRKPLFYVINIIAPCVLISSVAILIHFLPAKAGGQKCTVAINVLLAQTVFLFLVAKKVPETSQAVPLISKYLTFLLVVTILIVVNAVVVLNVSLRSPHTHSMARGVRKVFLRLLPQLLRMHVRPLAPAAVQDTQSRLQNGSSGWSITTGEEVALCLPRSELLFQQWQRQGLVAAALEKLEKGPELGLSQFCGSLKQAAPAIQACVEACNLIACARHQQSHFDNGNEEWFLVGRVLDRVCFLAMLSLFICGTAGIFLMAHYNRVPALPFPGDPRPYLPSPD", "sequence (P02708 21-457)": "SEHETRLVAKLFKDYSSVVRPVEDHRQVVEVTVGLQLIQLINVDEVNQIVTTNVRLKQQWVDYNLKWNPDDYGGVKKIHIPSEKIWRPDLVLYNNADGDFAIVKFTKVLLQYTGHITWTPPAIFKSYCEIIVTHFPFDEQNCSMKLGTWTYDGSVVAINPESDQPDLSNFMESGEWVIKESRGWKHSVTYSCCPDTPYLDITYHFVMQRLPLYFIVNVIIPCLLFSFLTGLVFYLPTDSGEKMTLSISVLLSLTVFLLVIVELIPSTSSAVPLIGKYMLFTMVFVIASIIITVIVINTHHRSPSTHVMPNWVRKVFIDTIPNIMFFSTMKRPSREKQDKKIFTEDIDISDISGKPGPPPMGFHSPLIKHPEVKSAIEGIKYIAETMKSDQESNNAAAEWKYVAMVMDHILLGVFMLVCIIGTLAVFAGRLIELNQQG", "sequence (Q07001 22-517)": "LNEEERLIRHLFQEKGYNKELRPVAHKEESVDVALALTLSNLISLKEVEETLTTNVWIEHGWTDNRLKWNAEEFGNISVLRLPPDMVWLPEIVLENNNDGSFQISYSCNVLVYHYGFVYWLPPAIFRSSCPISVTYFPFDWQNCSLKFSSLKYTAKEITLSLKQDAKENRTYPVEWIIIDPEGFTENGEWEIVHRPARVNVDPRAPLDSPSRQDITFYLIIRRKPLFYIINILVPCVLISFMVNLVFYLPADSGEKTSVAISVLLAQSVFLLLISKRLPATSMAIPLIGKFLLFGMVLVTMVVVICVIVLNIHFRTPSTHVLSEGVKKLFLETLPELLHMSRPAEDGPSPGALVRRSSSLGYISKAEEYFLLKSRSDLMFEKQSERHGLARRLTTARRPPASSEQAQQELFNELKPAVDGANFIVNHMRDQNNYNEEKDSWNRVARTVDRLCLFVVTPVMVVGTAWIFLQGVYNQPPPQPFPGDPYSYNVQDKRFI", "sequence (P11230 24-501, further chain)": "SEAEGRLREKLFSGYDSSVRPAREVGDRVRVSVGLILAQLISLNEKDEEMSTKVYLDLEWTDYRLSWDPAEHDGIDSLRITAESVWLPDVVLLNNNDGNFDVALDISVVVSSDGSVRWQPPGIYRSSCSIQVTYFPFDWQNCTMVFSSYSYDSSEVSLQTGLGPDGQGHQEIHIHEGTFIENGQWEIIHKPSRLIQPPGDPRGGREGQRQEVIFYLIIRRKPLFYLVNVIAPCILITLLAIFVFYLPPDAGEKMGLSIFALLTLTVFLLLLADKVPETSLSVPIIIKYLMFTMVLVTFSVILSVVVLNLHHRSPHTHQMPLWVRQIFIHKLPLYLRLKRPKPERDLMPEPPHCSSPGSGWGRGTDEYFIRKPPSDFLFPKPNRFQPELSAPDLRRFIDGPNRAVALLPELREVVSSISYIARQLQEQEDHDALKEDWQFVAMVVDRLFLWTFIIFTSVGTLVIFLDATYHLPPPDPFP", "test": "biochemical"}, "[13]": {"system": "ZR-75-1 Breast cancer cells", "test": "Inhibition of cell proliferation, trypan blue exclusion (Table 1)", "format": "cell-based, human", "details": "5 μM peptide every day, 6-day treatment", "description": "as §2, §3"}, "[14]": {"target": "adrenergic α1B receptor (Homo sapiens, UniProt P35368)", "sequence (P35368 whole entry)": "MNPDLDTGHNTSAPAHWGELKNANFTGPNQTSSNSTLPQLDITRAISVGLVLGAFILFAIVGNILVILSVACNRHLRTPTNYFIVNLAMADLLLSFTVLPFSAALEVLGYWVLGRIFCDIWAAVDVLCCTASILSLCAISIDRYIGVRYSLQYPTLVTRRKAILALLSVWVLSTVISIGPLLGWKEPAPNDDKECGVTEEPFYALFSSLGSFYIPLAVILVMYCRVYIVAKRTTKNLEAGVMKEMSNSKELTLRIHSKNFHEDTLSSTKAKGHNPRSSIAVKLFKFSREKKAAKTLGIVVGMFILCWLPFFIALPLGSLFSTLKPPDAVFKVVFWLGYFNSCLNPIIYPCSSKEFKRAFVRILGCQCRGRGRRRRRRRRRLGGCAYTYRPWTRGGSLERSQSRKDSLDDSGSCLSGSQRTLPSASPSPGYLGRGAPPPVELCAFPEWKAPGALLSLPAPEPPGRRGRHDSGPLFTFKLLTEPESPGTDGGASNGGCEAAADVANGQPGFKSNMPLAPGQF", "test": "biochemical"}, "[15]": {"target": "T3, norepinephrine transporter (Homo sapiens, UniProt P23975)", "T3 sequence (P23975 whole entry, species assumed)": "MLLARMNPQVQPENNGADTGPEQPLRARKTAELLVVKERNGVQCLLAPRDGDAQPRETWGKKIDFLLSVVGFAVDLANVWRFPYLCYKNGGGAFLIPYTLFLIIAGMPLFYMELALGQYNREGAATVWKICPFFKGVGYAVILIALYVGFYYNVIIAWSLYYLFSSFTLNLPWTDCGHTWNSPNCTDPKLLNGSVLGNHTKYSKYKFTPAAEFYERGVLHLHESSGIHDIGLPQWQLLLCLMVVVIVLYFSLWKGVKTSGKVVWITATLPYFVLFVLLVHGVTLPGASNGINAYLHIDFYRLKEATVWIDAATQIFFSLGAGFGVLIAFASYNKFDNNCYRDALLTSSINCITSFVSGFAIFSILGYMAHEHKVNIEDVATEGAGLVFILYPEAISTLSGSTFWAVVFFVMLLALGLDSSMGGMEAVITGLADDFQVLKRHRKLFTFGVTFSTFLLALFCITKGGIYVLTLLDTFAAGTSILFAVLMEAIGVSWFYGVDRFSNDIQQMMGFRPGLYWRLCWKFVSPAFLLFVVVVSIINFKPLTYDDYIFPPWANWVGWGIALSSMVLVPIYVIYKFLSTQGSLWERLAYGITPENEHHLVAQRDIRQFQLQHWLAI", "test": "biochemical"}, "[16]": {"system": "ZR-75-1 human breast carcinoma xenograft", "test": "ZR-75-1 human breast carcinoma xenograft model, daily dosing for 21 days", "format": "in vivo, mouse", "details": "4 mg/kg IV daily for 21 days, nu/nu mice", "description": "Efficacy of GO-203-2c was evaluated in a ZR-75-1 human breast carcinoma xenograft model. Female nu/nu mice (20-30 g; Charles River Laboratories, Wilmington, Mass.) were injected in the thigh with 5 million ZR-75-1 cells in Matrigel suspension. Mice also received subcutaneous 17-β-estradiol pellets. When tumors reached 100-200 mm^3 in size (approximately 12-15 days after implantation), mice were split into 4 groups of 5 mice and administered the following treatments daily for 21 days: phosphate-buffered saline (PBS) IP, 1 mg/kg GO-203-2c IV, 4 mg/kg GO-203-2c IV or 4 mg/kg control peptide CP-3 IV. Each animal was sacrificed when the tumor reached the predetermined endpoint size (˜2500 mm^3) or when the animals remained tumor-free for 180 days after implantation of the tumor cells."}, "[17]": {"target": "T2, muscarinic M2 receptor", "details": "at a concentration of 10 μM"}, "[18]": {"target": "T3, norepinephrine transporter", "details": "at a concentration of 10 μM"}, "[19]": {"details": "up to 90 to 100 days post treatment initiation"}}, "note": "Non-standard residues stand in square brackets, D forms with d. Residues, ends and D or L forms follow the SMILES beside them."}
{"molecule": "C[C@@H](NC(=O)[C@@H](CCC(N)=O)NC(=O)[C@@H](C)NC(=O)[C@@H](CCCNC(=N)N)NC(=O)[C@@H](CCCNC(=N)N)NC(=O)[C@@H](CCCNC(=N)N)NC(=O)[C@@H](CCCNC(=N)N)NC(=O)[C@@H](CCCNC(=N)N)NC(=O)[C@@H](CCCNC(=N)N)NC(=O)[C@@H](CCCNC(=N)N)NC(=O)[C@@H](CCCNC(=N)N)NC(=O)[C@H](N)CCCNC(=N)N)C(=O)N[C@H](CCCNC(=N)N)C(=O)N[C@H](CCCNC(=N)N)C(=O)N[C@H](CCCCN)C(=O)N[C@H](CC(N)=O)C(=O)O", "note": "[CP-2, reference compound] (H-[dR][dR][dR][dR][dR][dR][dR][dR][dR][dA][dQ][dA][dR][dR][dK][dN]-OH)", "values": [{"measurement": "Side effects of treatment (weight, clinical signs of toxicity)", "setting": "[1]", "result": "no observable side effects"}, {"measurement": "Tumor response", "setting": "[2]", "result": "without effect"}, {"measurement": "Tumor response", "setting": "[3]", "result": "without effect"}, {"measurement": "Tumor response", "setting": "[4]", "result": "without effect"}]}
{"molecule": "CC(=O)N[C@H](CCCNC(=N)N)C(=O)N[C@H](CCCNC(=N)N)C(=O)N[C@H](CCCNC(=N)N)C(=O)N[C@H](CCCNC(=N)N)C(=O)N[C@H](CCCNC(=N)N)C(=O)N[C@H](CCCNC(=N)N)C(=O)N[C@H](CCCNC(=N)N)C(=O)N[C@H](CCCNC(=N)N)C(=O)N[C@H](CCCNC(=N)N)C(=O)N[C@H](CS)C(=O)N[C@H](CCC(N)=O)C(=O)N[C@H](CS)C(=O)N[C@H](CCCNC(=N)N)C(=O)N[C@H](CCCNC(=N)N)C(=O)N[C@H](CCCCN)C(=O)N[C@H](CC(N)=O)C(N)=O", "note": "[GO-203-2] (Ac-[dR][dR][dR][dR][dR][dR][dR][dR][dR][dC][dQ][dC][dR][dR][dK][dN]-NH2)", "values": [{"measurement": "Avg (viable cell number of Groups 1-3)", "setting": "[5]", "result": 6.66}, {"measurement": "% inhibition", "setting": "[5]; vs untreated control", "result": 63.64, "unit": "%"}, {"measurement": "Group-1 (viable cell number, individual well)", "setting": "[5]; well having 10,000 cells", "result": 6.23}, {"measurement": "Group-2 (viable cell number, individual well)", "setting": "[5]; well having 10,000 cells", "result": 6.34}, {"measurement": "Group-3 (viable cell number, individual well)", "setting": "[5]; well having 10,000 cells", "result": 7.42}, {"measurement": "Inhibition of MUC1-CD oligomerization, reduced vs oxidized form", "setting": "[6]", "result": "much more effective"}, {"measurement": "Side effects of treatment (weight, clinical signs of toxicity)", "setting": "[1]", "result": "no observable side effects"}, {"measurement": "Tumor response", "setting": "[2]", "result": "complete growth arrest and regression"}, {"measurement": "Recurrence of tumors", "setting": "[2]; [19]", "result": "no evidence of recurrence"}, {"measurement": "IC50", "setting": "[7]", "result": "3 to 8", "unit": "µM"}, {"measurement": "IC50", "setting": "[8]", "result": "3 to 8", "unit": "µM"}, {"measurement": "Tumor response", "setting": "[3]", "result": "complete tumor growth arrest and regression"}, {"measurement": "Recurrence of tumors", "setting": "[3]; [19]", "result": "no evidence of recurrence"}, {"measurement": "50% inhibition (IC50) of proliferation", "setting": "[9]", "result": "5 to 11", "unit": "µg/mL"}, {"measurement": "IC50", "setting": "[9]", "result": "2 to 5", "unit": "µM"}, {"measurement": "Inhibition of oligomerization of purified His-tagged MUC1-CD", "setting": "[10]", "result": "inhibited"}, {"measurement": "Inhibition of MUC1-CD oligomerization", "setting": "[11]", "result": "in an equivalent manner"}, {"measurement": "IC50", "setting": "[12]", "result": "3 to 8", "unit": "µM"}, {"measurement": "Avg (viable cell number of Groups 1-3)", "setting": "[13]", "result": 8.06}, {"measurement": "% inhibition", "setting": "[13]; vs untreated control", "result": 65.49, "unit": "%"}, {"measurement": "Group-1 (viable cell number, individual well)", "setting": "[13]; well having 10,000 cells", "result": 7.14}, {"measurement": "Group-2 (viable cell number, individual well)", "setting": "[13]; well having 10,000 cells", "result": 9.38}, {"measurement": "Group-3 (viable cell number, individual well)", "setting": "[13]; well having 10,000 cells", "result": 7.67}, {"measurement": "IC50", "setting": "[14]", "result": "3 to 8", "unit": "µM"}, {"measurement": "Tumor response", "setting": "[4]", "result": "complete tumor growth arrest and regression"}, {"measurement": "Recurrence of tumors", "setting": "[4]; [19]", "result": "no evidence of recurrence"}, {"measurement": "IC50", "setting": "[15]", "result": "3 to 8", "unit": "µM"}]}
{"molecule": "CP-3: control peptide containing AQA instead of CQC amino acid sequence in the binding domain (RRRRRRRRRCQCRRKN) [reference compound]", "values": [{"measurement": "Tumor response", "setting": "[16]", "result": "ineffective"}, {"measurement": "Tumor response", "setting": "[16]; listed as CP3", "result": "no effect on tumor growth"}, {"measurement": "% inhibition of radioligand binding", "setting": "[17]", "result": 55, "unit": "%"}, {"measurement": "% inhibition of radioligand binding", "setting": "[18]", "result": 79, "unit": "%"}]}
